Experimental data: patent publication US8314058B2, “Uptake of macromolecules” (Axcess Limited, priority 2003, dated 2012)

Tested on: juvenile pigs
Experiment: In vivo efficacy of tablets containing chenodeoxycholate/propyl gallate/calcitonin mixture in juvenile pigs (blood calcium)
Conditions: 400 iu s.c., six hour period
Procedure: Blood calcium levels are measured at intervals over a six hour period and mean change in AUC of plasma calculated is calculated in h·mmol/l.

## salmon calcitonin
  AUC (mean change in AUC of plasma calcium): -1.79 mmol·h/L
